Legend:
Assay type in all cases: in vivo
Tetranychus urticae = Tetranychus urticae (Two-spotted spider mite) leaf disc test; settings: foliar, 192 h, 200 ppm sprayed on bean leaf discs, mite populations of mixed ages, 8 days, egg, larval and adult mortality
Text: Tetranychus urticae (Two-spotted spider mite): Bean leaf discs on agar in 24-well microtiter plates were sprayed with test solutions at an application rate of 200 ppm. After drying, the leaf discs are infested with mite populations of mixed ages. 8 days later, discs are checked for egg mortality, larval mortality, and adult mortality.

Diabrotica balteata = Diabrotica balteata (Corn root worm) artificial diet test; settings: 120 h, 200 ppm (concentration in well 18 ppm), L2 larvae, 5 days, larval mortality and growth regulation
Protocol: Diabrotica balteata (Corn root worm): A 24-well microtiter plate (MTP) with artificial diet was treated with test solutions at an application rate of 200 ppm (concentration in well 18 ppm) by pipetting. After drying, the MTP's were infested with L2 larvae (6-10 per well). After an incubation period of 5 days, samples were checked for larval mortality and growth regulation.

Heliothis virescens = Heliothis virescens (Tobacco budworm) egg/artificial diet test; settings: 96 h, 200 ppm (concentration in well 18 ppm), eggs on artificial diet, 4 days, egg mortality, larval mortality, growth regulation
Protocol: Heliothis virescens (Tobacco budworm): Eggs (0-24 h old) were placed in 24-well microtiter plate on artificial diet and treated with test solutions at an application rate of 200 ppm (concentration in well 18 ppm) by pipetting. After an incubation period of 4 days, samples were checked for egg mortality, larval mortality, and growth regulation.

Spodoptera littoralis = Spodoptera littoralis (Egyptian cotton leafworm) leaf disc test; settings: foliar, 72 h, 200 ppm sprayed on cotton leaf discs, L1 larvae, mortality, feeding behavior, growth regulation 3 DAT
Text: Spodoptera littoralis (Egyptian cotton leafworm): Cotton leaf discs were placed on agar in a 24-well microtiter plate and sprayed with test solutions at an application rate of 200 ppm. After drying, the leaf discs were infested with 5 L1 larvae. The samples were checked for mortality, feeding behavior, and growth regulation 3 days after treatment (DAT).

Plutella xylostella = Plutella xylostella (Diamond back moth) artificial diet test; settings: 144 h, 200 ppm (concentration in well 18 ppm), L2 larvae, 6 days, larval mortality and growth regulation
Protocol: Plutella xylostella (Diamond back moth): 24-well microtiter plate (MTP) with artificial diet was treated with test solutions at an application rate of 200 ppm (concentration in well 18 ppm) by pipetting. After drying, the MTP's were infested with L2 larvae (7-12 per well). After an incubation period of 6 days, samples were checked for larval mortality and growth regulation.

Thrips tabaci = Thrips tabaci (Onion thrips) leaf disc test; settings: foliar, 168 h, 200 ppm sprayed on sunflower leaf discs, population of mixed ages, 7 days, mortality
Protocol: Thrips tabaci (Onion thrips): Sunflower leaf discs were placed on agar in a 24-well microtiter plate and sprayed with test solutions at an application rate of 200 ppm. […] After an incubation period of 7 days, samples were checked for mortality.

Myzus persicae = Myzus persicae (Green peach aphid) leaf disc test; settings: foliar, 144 h, 200 ppm sprayed on sunflower leaf discs, aphid population of mixed ages, 6 DAT, mortality
Protocol: Myzus persicae (Green peach aphid): Sunflower leaf discs were placed on agar in a 24-well microtiter plate and sprayed with test solutions at an application rate of 200 ppm. After drying, the leaf discs were infested with an aphid population of mixed ages. After an incubation period of 6 DAT, samples were checked for mortality.

Measured: pest or weed control at 200 ppm

CCN(C(=O)c1ccncc1)c1cccc(C(=O)Nc2c(Br)cc(C(F)(C(F)(F)F)C(F)(F)F)cc2C2CC2)c1F [Compound 15]
≥ 80%: all assays above

CCN(C(=O)c1cc[n+]([O-])cc1)c1cccc(C(=O)Nc2c(Br)cc(C(F)(C(F)(F)F)C(F)(F)F)cc2C2CC2)c1F [Compound 16]
≥ 80%: all assays above

CCN(C(=O)c1cc[n+]([O-])cc1)c1cccc(C(=O)Nc2c(Br)cc(C(F)(C(F)(F)F)C(F)(F)F)cc2OC(F)F)c1F [Compound 17]
≥ 80%: all assays above

— patent US9635853B2, “Insecticidal compounds” (Syngenta Participations AG, priority 2013, dated 2017)
